Assay results reported in patent US8835632B2, “Methods to increase the photostability of dyes” (The University of North Carolina at Chapel Hill, priority 2007, dated 2014).

Assay: Absorption and fluorescence spectra, extinction coefficient, fluorescence quantum yield
Type: physicochemical
Protocol: Absorption spectra were recorded on a Hewlett-Packard 8453 diode array UV-Vis spectrophotometer (Agilent Technologies, Inc., Santa Clara, Calif.), and fluorescence measurements were taken on a SPEX® Fluorolog 2 spectrofluorometer (HORIBA Jobin Yvon, Inc., Edison, N.J.). Melting points are not corrected. NMR spectra were obtained on a Varian Mercury 300 MHz (Varian, Inc., Palo Alto, Calif.) or on a Bruker 300 MHz DRX 300 spectrometer (Bruker Biospin Corp., Billerica, Mass.). Mass spectra were obtained on a Hewlett-Packard 1100 high-performance liquid chromatograph equipped with an 1100 mass selective detector (MS-ESI) (Agilent Technologies, Inc.).
With decreasing solvent polarity, the absorption maximum of dyes 1a-b, 2a-d shifted to longer wavelengths, and the intensity of the transition increased (Table 10, FIG. 11).
The SCRF/VSCRF predicted emission energies and the solute dipole moments before and after the vertical emission process are given in Table 16. The dipole moments of AI-BA(4) and AI-SO(4) are further decreased on the S1 surface after geometry relaxation (in MeOH solution), and then increased during the S1→S0 transition. This observation is consistent with the blue shifts of the emission bands of AI-BA(4) and AI-SO(4) with increasing solvent polarity from C6H6 to MeOH. By contrast, the dipole moment of I-SO further decreases after S1 state geometry relaxation, and then decreases during the vertical emission process. This observation also is in agreement with the red shift of the I-SO emission band with increasing solvent polarity from C6H6 to MeOH. Similarly to the absorption case, a negligible red shift (ΔEem=0.017 eV) was predicted for the emission band of I-TBA with increasing solvent polarity. A small red shift from C6H6 to DMF (with ΔEem=0.020 eV, or Δλmax=6 nm) is observed. The nearly equal emission energy observed in C6H6 and MeOH can again result in the explicit interactions between the solute and solvent molecules.

Compound: C[n+]1ccc(/C=C/C2=C([O-])c3ccccc3S2(=O)=O)cc1 [P-SO(2)]
- Observed absorption (ε) (Table 10, BuOH): (67000)
- Observed absorption λmax (Table 10, BuOH): 519 nm
- Observed absorption (ε) (Table 10, C6H6): (169000)
- Observed absorption λmax (Table 10, C6H6): 538 nm
- Observed absorption (ε) (Table 10, CH2Cl2): (128000)
- Observed absorption λmax (Table 10, CH2Cl2): 529 nm
- Observed absorption (ε) (Table 10, CH3CN): (89000)
- Observed absorption λmax (Table 10, CH3CN): 546 nm
- Observed absorption (ε) (Table 10, DMF): (92000)
- Observed absorption λmax (Table 10, DMF): 522 nm
- Observed absorption (ε) (Table 10, DMSO): (75000)
- Observed absorption λmax (Table 10, DMSO): 520 nm
- Observed absorption (ε) (Table 10, EtOH): (65000)
- Observed absorption λmax (Table 10, EtOH): 514 nm
- Observed absorption (ε) (Table 10, MeOH): (57000)
- Observed absorption λmax (Table 10, MeOH): 505 nm
- Observed absorption (ε) (Table 10, OcOH): (72000)
- Observed absorption λmax (Table 10, OcOH): 524 nm
- Observed absorption (ε) (Table 10, i-PrOH): (72000)
- Observed absorption λmax (Table 10, i-PrOH): 518 nm
- Observed emission (Φ) (Table 15, BuOH): 0.015
- Observed emission λmax (Table 15, BuOH): 535 nm
- Observed emission (Φ) (Table 15, C6H6): 0.004
- Observed emission λmax (Table 15, C6H6): 546 nm
- Observed emission (Φ) (Table 15, CH2Cl2): 0.01
- Observed emission λmax (Table 15, CH2Cl2): 541 nm
- Observed emission (Φ) (Table 15, CH3CN): 0.011
- Observed emission λmax (Table 15, CH3CN): 531 nm
- Observed emission (Φ) (Table 15, DMF): 0.025
- Observed emission λmax (Table 15, DMF): 534 nm
- Observed emission (Φ) (Table 15, DMSO): 0.024
- Observed emission λmax (Table 15, DMSO): 535 nm
- Observed emission (Φ) (Table 15, EtOH): 0.008
- Observed emission λmax (Table 15, EtOH): 533 nm
- Observed emission (Φ) (Table 15, MeOH): 0.005
- Observed emission λmax (Table 15, MeOH): 529 nm
- Observed emission (Φ) (Table 15, OcOH): 0.024
- Observed emission λmax (Table 15, OcOH): 536 nm
- Observed emission (Φ) (Table 15, i-PrOH): 0.014
- Observed emission λmax (Table 15, i-PrOH): 532 nm

Compound: Cn1c(O)c(/C=C/C=C/c2cc[n+]3c(c2)C(C)(C)c2ccccc2-3)c(=O)n(C)c1=O [AI-BA]
- Absorbance λmax (Butanol (BuOH)): 615 nm
- Emission λmax (Butanol (BuOH)): 654 nm
- Extinction coefficient ε (Butanol (BuOH)): 154000
- Fluorescence quantum yield Φ (Butanol (BuOH)): 0.29
- Absorbance λmax (Methanol (MeOH)): 585 nm
- Emission λmax (Methanol (MeOH)): 618 nm
- Extinction coefficient ε (Methanol (MeOH)): 83000
- Fluorescence quantum yield Φ (Methanol (MeOH)): 0.52

Compound: CCn1c([O-])c(/C=C/C=C/c2cc[n+]3c(c2)C(C)(C)c2ccccc2-3)c(=O)n(CC)c1=S [AI-TBA]
- Absorbance λmax (Butanol (BuOH)): 619 nm
- Extinction coefficient ε (Butanol (BuOH)): 53000
- Absorption energy Eabs Exp (C6H6): 1.816 eV
- Absorption energy Eabs Exp (MeOH): 2.153 eV
- Absorbance λmax (Methanol (MeOH)): 576 nm
- Extinction coefficient ε (Methanol (MeOH)): 38000
- Observed absorption (ε) (Table 10, BuOH): (53000)
- Observed absorption λmax (Table 10, BuOH): 619 nm
- Observed absorption (ε) (Table 10, C6H6): (135000)
- Observed absorption λmax (Table 10, C6H6): 683 nm
- Observed absorption (ε) (Table 10, CH2Cl2): (104000)
- Observed absorption λmax (Table 10, CH2Cl2): 655 nm
- Observed absorption (ε) (Table 10, CH3CN): (54000)
- Observed absorption λmax (Table 10, CH3CN): 615 nm
- Observed absorption (ε) (Table 10, DMF): (52000)
- Observed absorption λmax (Table 10, DMF): 616 nm
- Observed absorption (ε) (Table 10, DMSO): (56000)
- Observed absorption λmax (Table 10, DMSO): 607 nm
- Observed absorption (ε) (Table 10, EtOH): (46000)
- Observed absorption λmax (Table 10, EtOH): 603 nm
- Observed absorption (ε) (Table 10, MeOH): (38000)
- Observed absorption λmax (Table 10, MeOH): 576 nm
- Observed absorption (ε) (Table 10, OcOH): (97000)
- Observed absorption λmax (Table 10, OcOH): 633 nm
- Observed absorption (ε) (Table 10, i-PrOH): (50000)
- Observed absorption λmax (Table 10, i-PrOH): 618 nm
- Absorption Exp wavelength (Table 12, C6H6): 683 nm
- Absorption Exp wavelength (Table 12, MeOH): 576 nm

Compound: Cn1c(O)c(/C=C/C=C(\C#N)c2cc[n+]3c(c2)C(C)(C)c2ccccc2-3)c(=O)n(C)c1=O [AI-BA-CN]
- Absorbance λmax (Butanol (BuOH)): 600 nm
- Emission λmax (Butanol (BuOH)): 620 nm
- Extinction coefficient ε (Butanol (BuOH)): 189000
- Fluorescence quantum yield Φ (Butanol (BuOH)): 0.25
- Absorbance λmax (Methanol (MeOH)): 589 nm
- Emission λmax (Methanol (MeOH)): 613 nm
- Extinction coefficient ε (Methanol (MeOH)): 180000
- Fluorescence quantum yield Φ (Methanol (MeOH)): 0.05
- Absorbance λmax (Water-Methanol (H2O—MeOH)): 578 nm
- Emission λmax (Water-Methanol (H2O—MeOH)): 607 nm
- Extinction coefficient ε (Water-Methanol (H2O—MeOH)): 123000
- Fluorescence quantum yield Φ (Water-Methanol (H2O—MeOH)): 0.15

Compound: CCn1c(O)c(/C=C/C=C(\C#N)c2cc[n+]3c(c2)C(C)(C)c2ccccc2-3)c(=O)n(CC)c1=S [AI-TBA-CN]
- Absorbance λmax (Butanol (BuOH)): 621 nm
- Emission λmax (Butanol (BuOH)): 641 nm
- Extinction coefficient ε (Butanol (BuOH)): 188000
- Fluorescence quantum yield Φ (Butanol (BuOH)): 0.33
- Absorbance λmax (Methanol (MeOH)): 606 nm
- Emission λmax (Methanol (MeOH)): 632 nm
- Extinction coefficient ε (Methanol (MeOH)): 146000
- Fluorescence quantum yield Φ (Methanol (MeOH)): 0.22
- Absorbance λmax (Water-Methanol (H2O—MeOH)): 593 nm
- Emission λmax (Water-Methanol (H2O—MeOH)): 625 nm
- Extinction coefficient ε (Water-Methanol (H2O—MeOH)): 77000
- Fluorescence quantum yield Φ (Water-Methanol (H2O—MeOH)): 0.17

Compound: CC1(C)c2ccccc2-[n+]2ccc(/C(C#N)=C/C=C/C3=C(O)c4ccccc4S3(=O)=O)cc21 [AI-SO-CN]
- Absorbance λmax (Butanol (BuOH)): 619 nm
- Emission λmax (Butanol (BuOH)): 640 nm
- Extinction coefficient ε (Butanol (BuOH)): 168000
- Fluorescence quantum yield Φ (Butanol (BuOH)): 0.29
- Absorbance λmax (Methanol (MeOH)): 608 nm
- Emission λmax (Methanol (MeOH)): 624 nm
- Extinction coefficient ε (Methanol (MeOH)): 163000
- Fluorescence quantum yield Φ (Methanol (MeOH)): 0.08
- Absorbance λmax (Water-Methanol (H2O—MeOH)): 601 nm
- Emission λmax (Water-Methanol (H2O—MeOH)): 624 nm
- Extinction coefficient ε (Water-Methanol (H2O—MeOH)): 128000
- Fluorescence quantum yield Φ (Water-Methanol (H2O—MeOH)): 0.08
